Laboratory results as given in the supplement of paper PMC10331698.
± gives the standard deviation of the averaged measurements.

How the values were obtained:
Test in all cases: level (log10 ratio to DMSO vehicle control); higher = higher biomarker level / cell amount than vehicle control
[1] = compound: O=C(Cl)C(F)(F)C(F)(F)C(F)(F)C(=O)Cl [Hexafluoroglutaryl chloride]; details: in DMSO
Experimental: (§1)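 BioMAP Diversity Plus panel of 12 human primary cell co-culture systems (3C, 4H, LPS, SAg, BT, BF4T, BE3C, CASM3C, HDF3CGF, KF3CT, MyoF, Mphg). Compounds were added 1 h before stimulation and left for 24 h (MyoF 48 h; BT 72 h for soluble read-outs or 6 d for IgG). Biomarkers were read by ELISA, cytotoxicity by SRB, PBMC viability and proliferation by Alamar Blue. Each well value was divided by the mean of 8 DMSO control wells on the same plate and log10 transformed; duplicate blinded samples were tested at 4 concentrations.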

[2] = compound: OCC(F)(F)C(F)(F)C(F)(F)C(F)(F)C(F)(F)C(F)(F)F [6:1 Fluorotelomer alcohol]; details: in DMSO
Experimental: as §1

[3] = compound: OCCCC(F)(F)C(F)(F)C(F)(F)C(F)(F)C(F)(F)C(F)(F)C(F)(F)C(F)(F)F [3-(Perfluorooctyl)propanol]; details: 6700 nM; in DMSO
Experimental: as §1

Perfluoropinacol = compound: OC(C(F)(F)F)(C(F)(F)F)C(O)(C(F)(F)F)C(F)(F)F [Perfluoropinacol]; details: in DMSO
Experimental: as §1

[4] = compound: C=C(C)C(=O)OCC(F)(F)C(F)(F)C(F)(F)F [2,2,3,3,4,4,4-Heptafluorobutyl methacrylate]; details: in DMSO
Experimental: as §1

[5] = compound: OCCC(F)(F)C(F)(F)C(F)(F)C(F)(F)C(F)(F)C(F)(F)C(F)(F)C(F)(F)F [8:2 Fluorotelomer alcohol]; details: 6700 nM; in DMSO
Experimental: as §1

Tetrafluorosuccinic acid = compound: O=C(O)C(F)(F)C(F)(F)C(=O)O [Tetrafluorosuccinic acid]; details: in DMSO
Experimental: as §1

[6] = compound: O=C(CC(=O)C(F)(F)C(F)(F)C(F)(F)F)c1cccs1 [(Perfluorobutyryl)-2-thenoylmethane]; details: in DMSO
Experimental: as §1

Test System | level (log10) ([1]; 6700 nM) | level (log10) ([1]; 20000 nM) | level (log10) ([1]; 60000 nM) | level (log10) ([2]; 6700 nM) | level (log10) ([2]; 20000 nM) | level (log10) ([2]; 60000 nM) | level (log10) [3] | level (log10) (Perfluoropinacol; 6700 nM) | level (log10) (Perfluoropinacol; 20000 nM) | level (log10) ([4]; 6700 nM) | level (log10) ([4]; 20000 nM) | level (log10) ([4]; 60000 nM) | level (log10) [5] | level (log10) (Tetrafluorosuccinic acid; 6700 nM) | level (log10) (Tetrafluorosuccinic acid; 20000 nM) | level (log10) (Tetrafluorosuccinic acid; 60000 nM) | level (log10) ([6]; 6700 nM) | level (log10) ([6]; 20000 nM)
HDF3CGF:CXCL9/MIG | 0.0125 ± 0.018 | -0.0055 ± 0.0064 | 0.0075 ± 0.012 | -0.001 ± 0.0042 | -0.012 ± 0.011 | -0.0175 ± 0.0078 | -0.0895 ± 0.054 | -0.018 ± 0.018 | -0.0675 ± 0.012 | -0.0185 ± 0.005 | -0.024 ± 0.0071 | -0.0395 ± 0.011 | 0.004 ± 0.0028 | -0.0285 ± 0.029 | -0.039 ± 0.065 | -0.06 ± 0.086 | -0.0495 ± 0.012 | -0.0855 ± 0.0064
HDF3CGF:TIMP-2 | -0.0215 ± 0.086 | -0.0155 ± 0.088 | -0.025 ± 0.075 | 0.004 ± 0.0099 | -0.0195 ± 0.0064 | -0.0905 ± 0.17 | 0.029 ± 0.013 | -0.0625 ± 0.005 | -0.126 ± 0.0021 | -0.008 ± 0.0014 | -0.0105 ± 0.022 | -0.0245 ± 0.019 | -0.0475 ± 0.079 | -0.052 ± 0.042 | -0.069 ± 0.025 | -0.1 ± 0.018 | -0.115 ± 0.013 | -0.408 ± 0.017
MyoF:alpha-SM Actin | -0.0115 ± 0.018 | -0.0065 ± 0.057 | -0.0105 ± 0.035 | 0 ± 0.0057 | -0.006 ± 0.0099 | 0.011 ± 0.054 | -0.0885 ± 0.061 | -0.004 ± 0.0028 | -0.14 ± 0.035 | -0.0195 ± 0.0078 | -0.0025 ± 0.0035 | -0.002 ± 0.011 | -0.021 ± 0.024 | 0.0065 ± 0.025 | -0.0165 ± 0.015 | -0.0275 ± 0.037 | -0.0445 ± 0.042 | -0.0865 ± 0.059
BE3C:Keratin 8/18 | 0.0005 ± 0.005 | -0.0195 ± 0.0078 | -0.0135 ± 0.022 | 0.0055 ± 0.036 | -0.0035 ± 0.057 | -0.0125 ± 0.071 | 0.0085 ± 0.033 | -0.0145 ± 0.00071 | -0.019 ± 0.0028 | -0.0165 ± 0.056 | -0.002 ± 0.05 | -0.003 ± 0.03 | -0.0185 ± 0.012 | 0.0225 ± 0.012 | 0.009 ± 0.013 | 0.0165 ± 0.00071 | -0.0535 ± 0.025 | -0.145 ± 0.005
lMphg:CD106/VCAM-1 | -0.0075 ± 0.0078 | -0.0015 ± 0.037 | -0.0145 ± 0.042 | 0.0035 ± 0.021 | 0.0035 ± 0.032 | 0.0115 ± 0.04 | 0.001 ± 0.0099 | 0.0045 ± 0.0064 | -0.077 ± 0.023 | 0.0005 ± 0.0021 | 0.005 ± 0.04 | 0.0115 ± 0.026 | 0.0055 ± 0.012 | -0.017 ± 0.0028 | 0.0085 ± 0.0021 | 0.018 ± 0.03 | -0.006 ± 0.0057 | -0.0715 ± 0.036
lMphg:CD62E/E-Selectin | -0.0295 ± 0.016 | 0.0025 ± 0.018 | -0.0365 ± 0.022 | 0.009 ± 0.024 | -0.008 ± 0.011 | -0.002 ± 0.023 | -0.0425 ± 0.066 | 0.0515 ± 0.013 | -0.139 ± 0.018 | -0.0085 ± 0.015 | -0.0005 ± 0.013 | -0.031 ± 0.0028 | 0.024 ± 0.023 | -0.0075 ± 0.032 | 0.0085 ± 0.011 | 0.032 ± 0.013 | -0.0485 ± 0.054 | -0.123 ± 0.034
BE3C:PAI-I | -0.0285 ± 0.053 | -0.0715 ± 0.059 | -0.0935 ± 0.094 | -0.0235 ± 0.0092 | -0.007 ± 0.0014 | 0.026 ± 0.011 | -0.008 ± 0.0014 | -0.119 ± 0.016 | -0.189 ± 0.0085 | -0.0505 ± 0.043 | -0.003 ± 0.055 | 0.017 ± 0.064 | -0.055 ± 0.021 | -0.011 ± 0.0071 | 0.002 ± 0.018 | -0.001 ± 0.023 | -0.127 ± 0.023 | -0.363 ± 0.035
CASM3C:Serum Amyloid A | -0.022 ± 0.038 | -0.008 ± 0.0042 | -0.002 ± 0.0014 | -0.001 ± 0.013 | 0.01 ± 0.017 | -0.052 ± 0.018 | -0.005 ± 0.024 | 0.0545 ± 0.0078 | 0.0595 ± 0.015 | 0.0145 ± 0.0078 | 0.03 ± 0.021 | 0.0075 ± 0.0064 | 0.0015 ± 0.016 | 0.011 ± 0.011 | 0.017 ± 0.018 | 0.025 ± 0.037 | 0.0285 ± 0.013 | -0.038 ± 0.013
CASM3C:PAI-I | -0.0135 ± 0.021 | 0.0025 ± 0.0078 | 0.0065 ± 0.0021 | -0.0035 ± 0.005 | -0.0015 ± 0.00071 | 0.003 ± 0.0085 | -0.0165 ± 0.0092 | -0.006 ± 0.0071 | -0.0075 ± 0.0064 | -0.003 ± 0.0042 | 0.0005 ± 0.0021 | 0.001 ± 0.0042 | -0.0035 ± 0.011 | 0.0025 ± 0.0021 | 0.009 ± 0.0042 | 0.0105 ± 0.0035 | -0.0135 ± 0.005 | -0.008 ± 0.0057
HDF3CGF:Collagen III | -0.027 ± 0.0028 | -0.06 ± 0.031 | -0.023 ± 0.028 | -0.0865 ± 0.14 | 0.0115 ± 0.074 | -0.367 ± 0.052 | -0.12 ± 0.0092 | 0.0175 ± 0.0078 | -0.0845 ± 0.0064 | -0.0545 ± 0.1 | -0.075 ± 0.031 | -0.034 ± 0.048 | -0.0025 ± 0.032 | -0.058 ± 0.057 | -0.0805 ± 0.059 | -0.118 ± 0.02 | 0.0155 ± 0.013 | -0.452 ± 0.0042
MyoF:CD106/VCAM-1 | -0.003 ± 0.0028 | 0.0015 ± 0.018 | 0.0035 ± 0.012 | -0.003 ± 0.0071 | -0.009 ± 0.017 | -0.002 ± 0.018 | -0.078 ± 0.044 | -0.013 ± 0.011 | -0.042 ± 0.0085 | 0.0045 ± 0.019 | -0.006 ± 0.0057 | 0.0035 ± 0.025 | -0.026 ± 0.016 | -0.0095 ± 0.016 | 0.0005 ± 0.019 | -0.015 ± 0.0085 | -0.0225 ± 0.039 | -0.0315 ± 0.013
CASM3C:CD87/uPAR | -0.014 ± 0.045 | -0.0225 ± 0.012 | -0.015 ± 0.038 | -0.004 ± 0.0071 | -0.0245 ± 0.00071 | -0.026 ± 0.035 | -0.021 ± 0.0085 | -0.0245 ± 0.015 | -0.107 ± 0.018 | -0.018 ± 0.0099 | -0.0235 ± 0.029 | -0.018 ± 0.0028 | -0.018 ± 0.054 | -0.01 ± 0.021 | -0.024 ± 0.013 | -0.0185 ± 0.0021 | -0.046 ± 0.018 | -0.0065 ± 0.005
HDF3CGF:CD54/ICAM-1 | -0.0015 ± 0.0035 | -0.007 ± 0.0042 | -0.001 ± 0.0099 | -0.0075 ± 0.011 | 0.008 ± 0.02 | 0.0075 ± 0.011 | -0.113 ± 0.15 | 0.012 ± 0.011 | 0.005 ± 0.018 | -0.008 ± 0.0071 | -0.013 ± 0.0071 | -0.007 ± 0.0099 | 0.0315 ± 0.035 | -0.0055 ± 0.03 | -0.006 ± 0.0071 | -0.0105 ± 0.016 | -0.0475 ± 0.011 | -0.0295 ± 0.0064
MyoF:CXCL8/IL-8 | -0.017 ± 0.0071 | 0.014 ± 0.011 | 0.03 ± 0.0085 | -0.0055 ± 0.025 | -0.0095 ± 0.037 | -0.005 ± 0.025 | -0.0505 ± 0.033 | 0.0295 ± 0.005 | 0.0265 ± 0.012 | -0.0125 ± 0.033 | -0.017 ± 0.024 | -0.014 ± 0.041 | 0.023 ± 0.0014 | -0.013 ± 0.0099 | -0.019 ± 0.014 | 0.006 ± 0.025 | -0.0155 ± 0.0078 | 0.016 ± 0.018
lMphg:CD40 | 0.036 ± 0.037 | 0.0115 ± 0.022 | -0.002 ± 0.011 | -0.0065 ± 0.026 | -0.0095 ± 0.019 | -0.0235 ± 0.022 | -0.037 ± 0.018 | -0.0265 ± 0.019 | -0.202 ± 0.03 | 0.0055 ± 0.011 | -0.005 ± 0.016 | -0.0195 ± 0.0078 | -0.0275 ± 0.0035 | -0.0125 ± 0.015 | -0.011 ± 0.0014 | 0.009 ± 0.014 | -0.0105 ± 0.016 | -0.119 ± 0.0071
BE3C:MMP-1 | -0.001 ± 0.014 | -0.008 ± 0.014 | 0.0065 ± 0.016 | -0.0115 ± 0.016 | 0 ± 0.0014 | 0.042 ± 0.013 | 0.064 ± 0.0042 | 0.0275 ± 0.0021 | -0.003 ± 0.0057 | -0.012 ± 0.0014 | -0.0055 ± 0.015 | 0.048 ± 0.014 | 0.0275 ± 0.021 | -0.0025 ± 0.011 | -0.0125 ± 0.0078 | 0.032 ± 0.038 | 0.0945 ± 0.015 | -0.051 ± 0.017
